Test results reported in patent US7517998B2, “Non nucleoside reverse transcriptase inhibitors” (priority 2004, dated 2009).

Molecular target: T1, K103NNY181C mutant reverse transcriptase (Human immunodeficiency virus type 1 group M subtype B, UniProt P04585, K690N/Y768C)
T1 construct: mutations that occur in the reverse transcriptase segment of the pol gene
Experiment: Reverse transcriptase enzymatic assay (PicoGreen), K103N/Y181C mutant RT
Format: biochemical, HIV-1
Conditions: IC50 mut (nM), mutant (K103N/Y181C) reverse transcriptase, enzymatic assay of Example 24
Procedure, shortened: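 PicoGreen fluorescence (ex 485, em 520 nm) quantified product after EDTA stop. Reaction ran 50 min at 37 °C in pH 7.8 Tris/HCl buffer, 1% DMSO, with poly rC/dG15 template-primer (45/4.5 nM), 3.6 μM dGTP, 2.5 nM enzyme; inhibitor 10 μM–0.508 nM final after 15 min room-temperature pre-incubation.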

Q: Which IC50 does the source give for `CC(C)(C)c1ccc(-n2nnnc2SCC(=O)Nc2ccc(NC(=O)C(C)(C)c3ccccc3)cc2Cl)c(Cl)c1` [Compound 7041] here?
A: 337 nM

Q: How did the IC50 turn out when `CC(C)(C)c1ccc(-n2nnnc2SCC(=O)Nc2ccc(NC(=O)Cc3ccccc3O)cc2Cl)c(Cl)c1` [Compound 7042] was run?
A: 27 nM

Q: How did the IC50 turn out when `CC(C(=O)Nc1ccc(NC(=O)CSc2nnnn2-c2ccc(C(C)(C)C)cc2Cl)c(Cl)c1)c1ccccc1` (stereo not drawn) [Compound 7044] was run?
A: 335 nM

Q: Which IC50 does the source give for `CC(=O)NC(C(=O)Nc1ccc(NC(=O)CSc2nnnn2-c2ccc(C(C)(C)C)cc2Cl)c(Cl)c1)c1ccccc1` (stereo not drawn) [Compound 7033] here?
A: 21.5 nM

Same assay, conditions: IC50 mut, K103N/Y181C mutant reverse transcriptase, enzymatic assay of Example 24

Q: `CC(C)(N)C#Cc1ccc(NC(=O)CSc2nnnn2-c2cc(C(C)(C)C)ccc2Cl)c(Cl)c1` [Compound 4201] was tested. Which IC50 did it give?
A: 52 nM

Q: For `CC(C)(C#Cc1ccc(NC(=O)CSc2nnnn2-c2cc(C3CC3)cc(C(F)(F)F)c2Cl)c(Cl)c1)C(=O)O` [Compound 4159], which IC50 is on record?
A: 136 nM

Q: For `O=C(CSc1nnnn1-c1ccc(C2CC2)cc1Cl)Nc1ccc(C#CCCN2CCC(O)CC2)cc1Cl` [Compound 4134], which IC50 is on record?
A: 28.5 nM

Q: `CC(C)(C#Cc1ccc(NC(=O)CSc2nnnn2-c2ccc(C3CC3)cc2Cl)c(Cl)c1)NC(=O)c1ccncc1` [Compound 4085] was tested. Which IC50 did it give?
A: 12 nM

Q: Which IC50 does the source give for `C=CC#Cc1ccc(NC(=O)CSc2nnnn2-c2ccc(C3CC3)cc2Cl)c(Cl)c1` [Compound 4133] here?
A: 53.5 nM

Q: How did the IC50 turn out when `CC(C)(C#Cc1ccc(NC(=O)CSc2nnnn2-c2ccc(C3CC3)cc2Cl)c(Cl)c1)NC(=O)CCC(=O)O` [Compound 4238] was run?
A: 7.8 nM

Q: Which IC50 does the source give for `CC(C)(C#Cc1ccc(NC(=O)CSc2nnnn2-c2cc(C3CC3)ccc2Cl)c(Cl)c1F)OCCN1CCNCC1` [Compound 4209] here?
A: 46 nM

Q: Which IC50 does the source give for `CC(C)(C#Cc1ccc(NC(=O)CSc2nnnn2-c2ccc(C(C)(C)C)cc2Cl)c(Cl)c1)OCC(=O)Nc1ccc(O)cc1` [Compound 4024] here?
A: 35 nM

Q: With `CC(C)(C#Cc1ccc(NC(=O)CSc2nnnn2-c2cc(C(C)(C)C)cc(Br)c2Cl)c(Cl)c1)NC(=O)CN1CCNCC1` [Compound 4224] as the molecule, how does the IC50 read?
A: 101 nM

Q: For `CCN(CC)CC#Cc1ccc(NC(=O)CSc2nnnn2-c2ccc(C(C)(C)C)cc2Cl)c(Cl)c1` [Compound 4008], which IC50 is on record?
A: 94 nM

Q: With `CC(C)(C#Cc1ccc(NC(=O)CSc2nnnn2-c2cc(C(C)(C)C)ccc2Cl)c(Cl)c1)NC(=O)c1cc[n+]([O-])cc1` [Compound 4205] as the molecule, how does the IC50 read?
A: 28.5 nM

Q: With `CC(C)(C#Cc1ccc(NC(=O)CSc2nnnn2-c2cc(C(F)(F)F)ccc2Cl)c(Cl)c1F)C(=O)NCCN1CCCC1` [Compound 4160] as the molecule, how does the IC50 read?
A: 114 nM

Q: Which IC50 does the source give for `CC(C)(C#Cc1ccc(NC(=O)CSc2nnnn2-c2ccc(C(C)(C)C)cc2Cl)c(Cl)c1)COC(N)=O` [Compound 4042] here?
A: 37 nM

Q: `CC(C)(C#Cc1ccc(NC(=O)CSc2nnnn2-c2ccc(C3CC3)cc2Cl)c(Cl)c1)NC(=O)CN1CCNCC1` [Compound 4124] was tested. Which IC50 did it give?
A: 27 nM

Q: How did the IC50 turn out when `CC(C)(C#Cc1ccc(NC(=O)CSc2nnnn2-c2ccc(C3CC3)cc2Cl)c(Cl)c1)OCCNC1CC1` [Compound 4117] was run?
A: 52 nM

Q: For `CC(C)(C#Cc1ccc(NC(=O)CSc2nnnn2-c2ccc(C3CC3)cc2Cl)c(Cl)c1)NC(=O)CC(=O)O` [Compound 4232], which IC50 is on record?
A: 10 nM

Q: `Cc1cc(C)c(-n2nnnc2SCC(=O)Nc2ccc(C#CC(C)(C)O)cc2Cl)c(Cl)c1` [Compound 4007] was tested. Which IC50 did it give?
A: 38 nM

Q: How did the IC50 turn out when `CN1CCN(CC2(C#Cc3ccc(NC(=O)CSc4nnnn4-c4ccc(C5CC5)cc4Cl)c(Cl)c3)CC2)CC1` [Compound 4094] was run?
A: 48.5 nM

Q: How did the IC50 turn out when `CC(C)(C#Cc1ccc(NC(=O)CSc2nnnn2-c2ccc(C3CC3)cc2Cl)c(Cl)c1)C(=O)NCC1CCCO1` (stereo not drawn) [Compound 4146] was run?
A: 37.5 nM

Q: Which IC50 does the source give for `CC(C)(C#Cc1ccc(NC(=O)CSc2nnnn2-c2ccc(C(C)(C)C)cc2Cl)c(Cl)c1)C(=O)O` [Compound 4011] here?
A: 25 nM

Q: `CC(C)(C#Cc1ccc(NC(=O)CSc2nnnn2-c2ccc(C3CC3)cc2Cl)c(Cl)c1)OCCOc1ccncc1` [Compound 4167] was tested. Which IC50 did it give?
A: 39.5 nM

Q: How did the IC50 turn out when `COC(=O)C(C)(C)C#Cc1ccc(NC(=O)CSc2nnnn2-c2cc(C(F)(F)F)ccc2Cl)c(Cl)c1` [Compound 4077] was run?
A: 44.5 nM

Q: `CCC(N)(C#Cc1ccc(NC(=O)CSc2nnnn2-c2ccc(C3CC3)cc2Cl)c(Cl)c1)CC` [Compound 4068] was tested. Which IC50 did it give?
A: 38.5 nM

Q: How did the IC50 turn out when `CC(C)(C#Cc1ccc(NC(=O)CSc2nnnn2-c2ccc(C3CC3)cc2Cl)c(Cl)c1)NC(=O)N1CCNCC1` [Compound 4228] was run?
A: 30 nM

Q: How did the IC50 turn out when `CC(C)(C#Cc1ccc(NC(=O)CSc2nnnn2-c2ccc(C(C)(C)C)cc2Cl)c(Cl)c1)OCC(=O)N1CCCC1` [Compound 4038] was run?
A: 75 nM

Same assay, conditions: IC50 mut, mutant reverse transcriptase, enzymatic assay of Example 24

Q: How did the IC50 turn out when `CS(=O)(=O)NC(=O)c1ccc(NC(=O)CSc2nnnn2-c2ccc(C3CC3)cc2Cl)c(Cl)c1` [Compound 6036] was run?
A: 146 nM

Q: `Cc1cc(-c2ccc(NC(=O)CSc3nnnn3-c3ccc(C(C)(C)C)cc3Cl)c(Cl)c2)ccc1OCC(=O)O` [Compound 3010] was tested. Which IC50 did it give?
A: 33 nM

Q: With `O=C(CSc1nnnn1-c1ccc(C2CC2)cc1Cl)Nc1ccc(OCC(=O)N2CCC(C(=O)O)CC2)cc1Cl` [Compound 5032] as the molecule, how does the IC50 read?
A: 51.5 nM

Q: With `Cc1ccc(-n2nnnc2SCC(=O)Nc2ccc(-c3cccc(CC(=O)O)c3)cc2Cl)c(Cl)c1` [Compound 3004] as the molecule, how does the IC50 read?
A: 93 nM

Q: How did the IC50 turn out when `CC(C)(C)c1ccc(-n2nnnc2SCC(=O)Nc2ccc(C(=O)NCCC(=O)O)cc2Cl)c(Cl)c1` [Compound 6024] was run?
A: 41 nM

Q: Which IC50 does the source give for `CC(C)(C)c1ccc(-n2nnnc2SCC(=O)Nc2ccc(OCC(=O)N3CCOCC3)cc2Cl)c(Cl)c1` [Compound 5004] here?
A: 41 nM

Q: How did the IC50 turn out when `CC(C)(C)c1ccc(-n2nnnc2SCC(=O)Nc2ccc(C(=O)Nc3ccc(CCC(=O)O)cc3)cc2Cl)c(Cl)c1` [Compound 6031] was run?
A: 29.5 nM

Q: How did the IC50 turn out when `CC(C)(C)c1cc(Cl)c(-n2nnnc2SCC(=O)Nc2ccc(-c3ccc(CC(=O)O)cc3)cc2Cl)c(Cl)c1` [Compound 2020] was run?
A: 18 nM

Q: How did the IC50 turn out when `O=C(CSc1nnnn1-c1cc(C(F)(F)F)ccc1Cl)Nc1ccc(-c2ccc(OCCN3CCCCC3)cc2)cc1Cl` [Compound 2049] was run?
A: 54 nM

Q: For `Cc1ccc(-n2nnnc2SCC(=O)Nc2ccc(-c3ccc(OCC(=O)O)cc3)cc2Cl)c(Cl)c1` [Compound 2007], which IC50 is on record?
A: 22 nM

Q: How did the IC50 turn out when `Cc1ccc(-n2nnnc2SCC(=O)Nc2ccc(-c3cocn3)cc2Cl)c(Cl)c1` [Compound 3016] was run?
A: 359 nM

Q: Which IC50 does the source give for `CC(C)(C)c1ccc(-n2nnnc2SCC(=O)Nc2ccc(OCC(=O)NC3CCOCC3)cc2Cl)c(Cl)c1` [Compound 5030] here?
A: 116 nM

Q: Which IC50 does the source give for `CN(C)c1ccc(NC(=O)c2ccc(NC(=O)CSc3nnnn3-c3ccc(C(C)(C)C)cc3Cl)c(Cl)c2)cc1` [Compound 6012] here?
A: 47 nM

Q: How did the IC50 turn out when `CC(C)(C)c1ccc(-n2nnnc2SCC(=O)Nc2ccc(-c3cccc(C(=O)O)c3)cc2Cl)c(Cl)c1` [Compound 3022] was run?
A: 50 nM

Q: Which IC50 does the source give for `CC(C)NS(=O)(=O)c1ccc(NC(=O)CSc2nnnn2-c2ccc(C(C)(C)C)cc2Cl)c(Cl)c1` [Compound 3023] here?
A: 284 nM

Q: Which IC50 does the source give for `CCN(CC)CCOc1ccc(-c2ccc(NC(=O)CSc3nnnn3-c3ccc(C(C)(C)C)cc3Cl)c(Cl)c2)cc1` [Compound 2024] here?
A: 26 nM

Q: For `CC(C)(C)c1ccc(-n2nnnc2SCC(=O)Nc2ccc(OCC(=O)NCCO)cc2Cl)c(Cl)c1` [Compound 5015], which IC50 is on record?
A: 158 nM

Q: `CC(C)(C)c1ccc(-n2nnnc2SCC(=O)Nc2ccc(OCC(=O)NCCc3ccncc3)cc2Cl)c(Cl)c1` [Compound 5024] was tested. Which IC50 did it give?
A: 66 nM

Q: With `O=C(O)Cc1ccc(-c2ccc(NC(=O)CSc3nnnn3-c3ccc4ccccc4c3Cl)c(Cl)c2)cc1` [Compound 2030] as the molecule, how does the IC50 read?
A: 64 nM

Q: `Cc1cc(C)c(-n2nnnc2SCC(=O)Nc2ccc(-c3ccc(CC(=O)O)cc3)cc2Cl)c(Cl)c1` [Compound 2021] was tested. Which IC50 did it give?
A: 20 nM

Q: Which IC50 does the source give for `O=C(O)Cc1ccc(-c2ccc(NC(=O)CSc3nnnn3-c3ccc(OC(F)(F)F)cc3Cl)c(Cl)c2)cc1` [Compound 2034] here?
A: 178 nM

Q: With `CC(C)(C)c1ccc(-n2nnnc2SCC(=O)Nc2ccc(OCCN3CCCCC3)cc2Cl)c(Cl)c1` [Compound 3033] as the molecule, how does the IC50 read?
A: 201 nM
